# Data from patent publication US12624017B2, “Salt form of isoquinolinone type compound as rock inhibitor and preparation method therefor” (GUANGZHOU OCUSUN OPHTHALMIC BIOTECHNOLOGY CO., LTD., priority 2020, dated 2026).
# Tested on: New Zealand rabbits with normal intraocular pressure
# Assay: Intraocular pressure reduction, normal intraocular pressure, eye drops in both eyes for 14 days (Operation I)
# Type: in vivo, New Zealand white rabbits
# Details: for Change in intraocular pressure: vs negative control
# Source text: An intraocular pressure reduction effect and potential ocular toxicity of the compound of formula (I) were inspected with rabbits with normal intraocular pressure by repeated administration of eye drops for 14 days.
# Male New Zealand white rabbits, aged 97 to 127 days, weighted 2.6-3.5 kg, purchased from Pizhou Oriental Breeding Co., Ltd.
# The Male New Zealand white rabbits were randomly divided into 7 groups according to body weights, 6 rabbits/group. The animals in Groups 1 to 7 were administrated dropwise with a solvent/control/test article in both eyes in an administration volume of 50 μL/eye, once a day for 14 consecutive days, and the day of first administration was recorded as Day 1. The intraocular pressures of the animals were measured before administration, as well as at 1, 2, 4, 6, 8 and 10 h after administration, respectively. On Days 2 to 14, the intraocular pressures of animals in the K-115 administration group were measured at 1 h after daily administration; and intraocular pressures of the animals in the remaining groups were measured at 4 h after daily administration.
# [1] = 2.0 mg/mL, Day 1, 1 h after administration
# [2] = 2.0 mg/mL, Day 1, 2 h after administration
# [3] = 2.0 mg/mL, Day 1, 4 h after administration
# [4] = 2.0 mg/mL, Day 1, 6 h after administration
# [5] = 2.0 mg/mL, Day 1, 8 h after administration
# [6] = 2.0 mg/mL, Day 1, 10 h after administration
# [7] = 2.0 mg/mL, Day 1, before administration
# [8] = 4.0 mg/mL once a day, Day 2, 4 h after daily administration
# [9] = 4.0 mg/mL once a day, Day 3, 4 h after daily administration
# [10] = 4.0 mg/mL once a day, Day 4, 4 h after daily administration
# [11] = 4.0 mg/mL once a day, Day 5, 4 h after daily administration
# [12] = 4.0 mg/mL once a day, Day 6, 4 h after daily administration
# [13] = 4.0 mg/mL once a day, Day 7, 4 h after daily administration
# [14] = 4.0 mg/mL, Day 1, 1 h after administration
# [15] = 4.0 mg/mL, Day 1, 2 h after administration
# [16] = 4.0 mg/mL, Day 1, 4 h after administration
# [17] = 4.0 mg/mL, Day 1, 6 h after administration
# [18] = 4.0 mg/mL, Day 1, 8 h after administration
# [19] = 4.0 mg/mL, Day 1, 10 h after administration
# [20] = 4.0 mg/mL, Day 1, before administration
# [21] = 8.0 mg/mL once a day, Day 2, 4 h after daily administration
# [22] = 8.0 mg/mL once a day, Day 3, 4 h after daily administration
# [23] = 8.0 mg/mL once a day, Day 4, 4 h after daily administration
# [24] = 8.0 mg/mL once a day, Day 5, 4 h after daily administration
# [25] = 8.0 mg/mL once a day, Day 6, 4 h after daily administration
# [26] = 8.0 mg/mL once a day, Day 7, 4 h after daily administration
# [27] = 8.0 mg/mL, Day 1, 1 h after administration
# [28] = 8.0 mg/mL, Day 1, 2 h after administration
# [29] = 8.0 mg/mL, Day 1, 4 h after administration
# [30] = 8.0 mg/mL, Day 1, 6 h after administration
# [31] = 8.0 mg/mL, Day 1, 8 h after administration
# [32] = 8.0 mg/mL, Day 1, 10 h after administration
# [33] = 8.0 mg/mL, Day 1, before administration
structure (smiles),measurement,setting,value
Cc1ccc(C(=O)OCn2cc(C)c3c(S(=O)(=O)N4CC[C@H](N)C4)cccc3c2=O)c(C)c1 [Compound of formula (I)],Change in intraocular pressure,"2.0 mg/mL once a day, Day 13, 4 h after daily administration",4.28 mmHg
same,Change in intraocular pressure,"2.0 mg/mL once a day, Day 14, 4 h after daily administration",3.91 mmHg
same,Average intraocular pressure in both eyes,[1],8.56 mmHg
same,Change in intraocular pressure,[1],1.75 mmHg
same,Average intraocular pressure in both eyes,[2],7.47 mmHg
same,Change in intraocular pressure,[2],3.5 mmHg
same,Average intraocular pressure in both eyes,[3],7.47 mmHg
same,Change in intraocular pressure,[3],3.84 mmHg
same,Average intraocular pressure in both eyes,[4],7.25 mmHg
same,Change in intraocular pressure,[4],4.69 mmHg
same,Average intraocular pressure in both eyes,[5],8.44 mmHg
same,Change in intraocular pressure,[5],4.53 mmHg
same,Average intraocular pressure in both eyes,[6],9.67 mmHg
same,Change in intraocular pressure,[6],4.75 mmHg
same,Average intraocular pressure in both eyes,[7],9.67 mmHg
same,Change in intraocular pressure,[7],0.22 mmHg
same,Average intraocular pressure in both eyes,[8],6.53 mmHg
same,Change in intraocular pressure,[8],4.55 mmHg
same,Average intraocular pressure in both eyes,[9],5.58 mmHg
same,Change in intraocular pressure,[9],4.81 mmHg
same,Average intraocular pressure in both eyes,[10],5.53 mmHg
same,Change in intraocular pressure,[10],5.08 mmHg
same,Average intraocular pressure in both eyes,[11],6.61 mmHg
same,Change in intraocular pressure,[11],4.36 mmHg
same,Average intraocular pressure in both eyes,[12],5.47 mmHg
same,Change in intraocular pressure,[12],3.84 mmHg
same,Average intraocular pressure in both eyes,[13],5.56 mmHg
same,Change in intraocular pressure,[13],4.5 mmHg
same,Change in intraocular pressure,"4.0 mg/mL once a day, Day 8, 4 h after daily administration",4.53 mmHg
same,Change in intraocular pressure,"4.0 mg/mL once a day, Day 9, 4 h after daily administration",3.97 mmHg
same,Change in intraocular pressure,"4.0 mg/mL once a day, Day 10, 4 h after daily administration",4.67 mmHg
same,Change in intraocular pressure,"4.0 mg/mL once a day, Day 11, 4 h after daily administration",3.86 mmHg
same,Change in intraocular pressure,"4.0 mg/mL once a day, Day 12, 4 h after daily administration",3.64 mmHg
same,Change in intraocular pressure,"4.0 mg/mL once a day, Day 13, 4 h after daily administration",4.36 mmHg
same,Change in intraocular pressure,"4.0 mg/mL once a day, Day 14, 4 h after daily administration",4.64 mmHg
same,Average intraocular pressure in both eyes,[14],10.44 mmHg
same,Change in intraocular pressure,[14],−0.13 mmHg
same,Average intraocular pressure in both eyes,[15],7.81 mmHg
same,Change in intraocular pressure,[15],3.16 mmHg
same,Average intraocular pressure in both eyes,[16],6.47 mmHg
same,Change in intraocular pressure,[16],4.84 mmHg
same,Average intraocular pressure in both eyes,[17],6.22 mmHg
same,Change in intraocular pressure,[17],5.72 mmHg
same,Average intraocular pressure in both eyes,[18],7.33 mmHg
same,Change in intraocular pressure,[18],5.64 mmHg
same,Average intraocular pressure in both eyes,[19],8.64 mmHg
same,Change in intraocular pressure,[19],5.78 mmHg
same,Average intraocular pressure in both eyes,[20],9.67 mmHg
same,Change in intraocular pressure,[20],0.22 mmHg
same,Average intraocular pressure in both eyes,[21],6.33 mmHg
same,Change in intraocular pressure,[21],4.75 mmHg
same,Average intraocular pressure in both eyes,[22],5.78 mmHg
same,Change in intraocular pressure,[22],4.61 mmHg
same,Average intraocular pressure in both eyes,[23],5.97 mmHg
same,Change in intraocular pressure,[23],4.64 mmHg
same,Average intraocular pressure in both eyes,[24],6.42 mmHg
same,Change in intraocular pressure,[24],4.55 mmHg
same,Average intraocular pressure in both eyes,[25],5.56 mmHg
same,Change in intraocular pressure,[25],3.75 mmHg
same,Average intraocular pressure in both eyes,[26],5.28 mmHg
same,Change in intraocular pressure,[26],4.78 mmHg
same,Change in intraocular pressure,"8.0 mg/mL once a day, Day 8, 4 h after daily administration",5.59 mmHg
same,Change in intraocular pressure,"8.0 mg/mL once a day, Day 9, 4 h after daily administration",4.25 mmHg
same,Change in intraocular pressure,"8.0 mg/mL once a day, Day 10, 4 h after daily administration",4.19 mmHg
same,Change in intraocular pressure,"8.0 mg/mL once a day, Day 11, 4 h after daily administration",4.16 mmHg
same,Change in intraocular pressure,"8.0 mg/mL once a day, Day 12, 4 h after daily administration",3.97 mmHg
same,Change in intraocular pressure,"8.0 mg/mL once a day, Day 13, 4 h after daily administration",4.72 mmHg
same,Change in intraocular pressure,"8.0 mg/mL once a day, Day 14, 4 h after daily administration",4.03 mmHg
same,Average intraocular pressure in both eyes,[27],7.69 mmHg
same,Change in intraocular pressure,[27],2.62 mmHg
same,Average intraocular pressure in both eyes,[28],6.39 mmHg
same,Change in intraocular pressure,[28],4.58 mmHg
same,Average intraocular pressure in both eyes,[29],7.06 mmHg
same,Change in intraocular pressure,[29],4.25 mmHg
same,Average intraocular pressure in both eyes,[30],7.11 mmHg
same,Change in intraocular pressure,[30],4.83 mmHg
same,Average intraocular pressure in both eyes,[31],7.22 mmHg
same,Change in intraocular pressure,[31],5.75 mmHg
same,Average intraocular pressure in both eyes,[32],7.97 mmHg
same,Change in intraocular pressure,[32],6.45 mmHg
same,Average intraocular pressure in both eyes,[33],10.17 mmHg
same,Change in intraocular pressure,[33],−0.28 mmHg
same,Efficacy of single administration (conclusion),"all tested doses (0.5 to 8.0 mg/mL), compared with K-115",better efficacy
same,Intraocular pressure reduction effect on 14 days of consecutive administration (conclusion),"dose of 0.5 mg/mL, compared with K-115",significant intraocular pressure reduction effect
